In US20190249215A1, “Three-Dimensional Cell-Derived Extracellular Matrix/Gel Systems” (Institute For Cancer Research d/b/a The Research Institute …, priority 2018, published 2019):

Legend:
pERK1/2 = conditions: KRAS cells within CAF-CDMs produced onto patho stiffness gels; 20 μM U0126 overnight; fractionated cell lysates
Procedure: (§1) At the end of the experiments, KRAS cells were lysed with cell lysis buffer from Cell Signaling Technology (Danvers, Mass.) supplemented with Pierce™ Phosphatase and protease Inhibitor Mini Tablets (Cat Nos. 88667 and 88665, respectively) from Thermo Fisher Scientific (Waltham, Mass.). Proteins were SDS-PAGE dissolved and transferred to PVDF membranes. Blots were incubated with the following primary antibodies: Rabbit anti-human Phospho-p44/42 ERK1/2 (Thr^202/Tyr^204)(Cat No. 4370) and rabbit anti-human total-p44/42 ERK1/2 (Cat No. 9102) obtained from Cell Signaling Technology (Danvers, Mass.). Anti-phospho-p90RSK1 (Ser^380) (Cat No. 04-418) and anti-human glyceraldehyde 3-phosphate dehydrogenase (GAPDH) (Cat No. MAB374) obtained from Millipore (Billerica, Mass.). Horseradish peroxidase-conjugated, anti-species matched, secondary antibodies were obtained from Sigma Aldrich (St. Louis, Mo.). Protein bands were visualized using the Protein Simple FluorChemE System, (San Jose, Calif.). Nuclear levels of pERK1/2 were assessed using the Subcellular Protein Fractionation Kit (Thermo Scientific, Waltham, Mass.). Isolation of nuclear versus whole cell fractions was carried out according to the manufacturer's instructions.

phospho-p90RSK = conditions: KRAS cells within CAF-CDMs produced onto patho gels; 20 μM U0126 overnight
Procedure: as §1

[1] = tested on: RFP-expressing KRAS cell spheroids; assay: Spheroid spreading assay; assay type: cell-based, human; conditions: KRAS spheroids within CAF-CDMs produced onto patho stiffness gels; 20 μM U0126 overnight
Procedure: Red fluorescence protein (RFP)-expressing KRAS cells generated in our laboratory were trypsinized and suspended in spheroid formation media (Irvine Scientific, Santa Ana, Calif., Catalog ID: 91130) and allowed to incubate overnight. Thirty μl drops containing 2.5×10^3 cells were carefully placed on a lid of a sterile petri dish. The dish was filled with 5 mL media and the lid with the “hanging drops” was carefully placed, drops face down, and incubated overnight. Spheroids were removed from the lids, one by one, placed onto the diverse substrates or CDMs, and allowed to adhere for 2 hours. Subsequently, the spheroid formation media was diluted with regular pancreatic epithelial growth media (see above). Following a 48-hour incubation, cell spreading was visualized using an inverted fluorescence microscope equipped with epifluorescent image acquisition capabilities. Data were normalized to the initial size of each spheroid at time 0 hour. When indicated, spheroids were treated overnight with 20 μM of the MEK1/2 inhibitor U0126 from Calbiochem or DMSO, while siRNA transfection. The images were processed using MetaMorph 7.8.1.0 software (Molecular Devices, Downingtown, Pa.). A minimum of 5 spheres per condition were analyzed in at least three independent experiments.

phosphorylation levels of p90 ribosomal S6 kinase (pho-p90RSK) (phospho-p90RSK): downregulated
SMILES: N#CC(=C(N)Sc1ccccc1N)C(C#N)=C(N)Sc1ccccc1N [U0126, 1,4-diamino-2,3-dicyano-1,4-bis[2-aminophenylthio] butadiene]
nuclear levels of pERK1/2 (pERK1/2): significant loss of pERK1/2 at nuclear locations | KRAS spheroid area spread [1]: significant reduction in KRAS spheroid spread
